# Source: PubChem BioAssay (NCI)
#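 The compound was tested at five concentrations on cells cultured in 96-well plates, with a 48-hour exposure period. TGI denotes the concentration required for complete inhibition of growth.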
# Experiments:
# Assay in all cases: NCI anticancer screen, dose series, 48 h
# [1] = tested on: HOP-92 NSCLC
# [2] = tested on: OVCAR-8 ovarian
# [3] = tested on: OVCAR-5 ovarian
# [4] = tested on: A549 NSCLC
# [5] = tested on: M14 melanoma
# [6] = tested on: NCI/ADR-RES ovarian
# [7] = tested on: RPMI-8226 leukemia
# [8] = tested on: A498 renal
# [9] = tested on: SK-MEL-28 melanoma
# [10] = tested on: HCC-2998 colon
# [11] = tested on: HCT-15 colon
# [12] = tested on: SW-620 colon
# [13] = tested on: SF-539 CNS
# [14] = tested on: IGROV1 ovarian
# [15] = tested on: MOLT-4 leukemia
# [16] = tested on: UACC-62 melanoma
# [17] = tested on: KM12 colon
# [18] = tested on: T-47D breast
# [19] = tested on: UO-31 renal
# [20] = tested on: SNB-75 CNS
# [21] = tested on: TK-10 renal
# [22] = tested on: SK-MEL-5 melanoma
# [23] = tested on: SN12C renal
# [24] = tested on: DU-145 prostate
# [25] = tested on: HOP-62 NSCLC
# [26] = tested on: OVCAR-4 ovarian
# [27] = tested on: NCI-H522 lung
# [28] = tested on: U251 CNS
# [29] = tested on: EKVX NSCLC
# [30] = tested on: HCT-116 colon
# [31] = tested on: K-562 leukemia
# [32] = tested on: SK-MEL-2 melanoma
# [33] = tested on: CCRF-CEM leukemia
# [34] = tested on: SF-268 CNS
# [35] = tested on: SR leukemia
# [36] = tested on: CAKI-1 renal
# [37] = tested on: MDA-N
# [38] = tested on: MDA-MB-435
# [39] = tested on: NCI-H226 lung
# [40] = tested on: MDA-MB-231 breast
# [41] = tested on: HT29 colon
# [42] = tested on: NCI-H23 lung
# [43] = tested on: UACC-257 melanoma
# [44] = tested on: ACHN renal
# [45] = tested on: HL-60(TB) leukemia
# [46] = tested on: SK-OV-3 ovarian
# [47] = tested on: MALME-3M melanoma
# [48] = tested on: SNB-19 CNS
# [49] = tested on: HS 578T breast
# [50] = tested on: MCF7 breast
# [51] = tested on: 786-0 renal
# [52] = tested on: OVCAR-3 ovarian
# [53] = tested on: COLO 205 colon
# [54] = tested on: SF-295 CNS
# [55] = tested on: PC-3 prostate
# [56] = tested on: LOX IMVI melanoma
# [57] = tested on: BT-549 breast
# [58] = tested on: RXF 393 renal
# [59] = tested on: NCI-H460 lung
smiles,measurement,setting,value
COc1cc2c(cc1OC)C1c3ccccc3CCCN1CC2 (configuration not stated),TGI,[1],> 100 µM
same,TGI,[2],> 100 µM
same,TGI,[3],> 100 µM
same,TGI,[4],> 100 µM
same,TGI,[5],> 100 µM
same,TGI,[6],> 100 µM
same,TGI,[7],> 100 µM
same,TGI,[8],> 100 µM
same,TGI,[9],> 100 µM
same,TGI,[10],> 100 µM
same,TGI,[11],> 100 µM
same,TGI,[12],> 100 µM
same,TGI,[13],> 100 µM
same,TGI,[14],> 100 µM
same,TGI,[15],> 100 µM
same,TGI,[16],> 100 µM
same,TGI,[17],> 100 µM
same,TGI,[18],> 100 µM
same,TGI,[19],> 100 µM
same,TGI,[20],> 100 µM
same,TGI,[21],> 100 µM
same,TGI,[22],> 100 µM
same,TGI,[23],> 100 µM
same,TGI,[24],> 100 µM
same,TGI,[25],> 100 µM
same,TGI,[26],> 100 µM
same,TGI,[27],> 100 µM
same,TGI,[28],> 100 µM
same,TGI,[29],> 100 µM
same,TGI,[30],> 100 µM
same,TGI,[31],> 100 µM
same,TGI,[32],> 100 µM
same,TGI,[33],> 100 µM
same,TGI,[34],> 100 µM
same,TGI,[35],> 100 µM
same,TGI,[36],> 100 µM
same,TGI,[37],> 100 µM
same,TGI,[38],> 100 µM
same,TGI,[39],> 100 µM
same,TGI,[40],> 100 µM
same,TGI,[41],> 100 µM
same,TGI,[42],> 100 µM
same,TGI,[43],> 100 µM
same,TGI,[44],> 100 µM
same,TGI,[45],> 100 µM
same,TGI,[46],> 100 µM
same,TGI,[47],> 100 µM
same,TGI,[48],> 100 µM
same,TGI,[49],> 100 µM
same,TGI,[50],> 100 µM
same,TGI,[51],> 100 µM
same,TGI,[52],> 100 µM
same,TGI,[53],> 100 µM
same,TGI,[54],> 100 µM
same,TGI,[55],> 100 µM
same,TGI,[56],> 100 µM
same,TGI,[57],> 100 µM
CC1OC2=N[C@@H]1C(=O)N[C@@H](Cc1ccccc1)C1=N[C@H](C(=O)N[C@@H](Cc3ccccc3)C3=N[C@H](C(=O)N[C@H]2Cc2ccccc2)C(C)O3)C(C)O1 (some centres not stated),TGI,[1],59.7 µM
same,TGI,[2],> 100 µM
same,TGI,[3],68.5 µM
same,TGI,[4],> 100 µM
same,TGI,[5],56.4 µM
same,TGI,[6],> 100 µM
same,TGI,[7],34.1 µM
same,TGI,[8],91.9 µM
same,TGI,[9],69.2 µM
same,TGI,[10],> 100 µM
same,TGI,[11],> 100 µM
same,TGI,[12],> 100 µM
same,TGI,[13],47.4 µM
same,TGI,[14],> 100 µM
same,TGI,[16],80.1 µM
same,TGI,[17],> 100 µM
same,TGI,[18],> 100 µM
same,TGI,[19],> 100 µM
same,TGI,[21],69.5 µM
same,TGI,[22],57.8 µM
same,TGI,[23],> 100 µM
same,TGI,[24],> 100 µM
same,TGI,[25],> 100 µM
same,TGI,[26],> 100 µM
same,TGI,[29],> 100 µM
same,TGI,[30],> 100 µM
same,TGI,[31],68.7 µM
same,TGI,[32],52.3 µM
same,TGI,[35],62.6 µM
same,TGI,[36],88.6 µM
same,TGI,[37],> 100 µM
same,TGI,[38],81.7 µM
same,TGI,[39],93.9 µM
same,TGI,[40],72 µM
same,TGI,[41],52.5 µM
same,TGI,[42],> 100 µM
same,TGI,[58],> 100 µM
same,TGI,[43],71.2 µM
same,TGI,[44],> 100 µM
same,TGI,[46],> 100 µM
same,TGI,[47],57.6 µM
same,TGI,[49],65.8 µM
same,TGI,[50],> 100 µM
same,TGI,[52],75.8 µM
same,TGI,[53],34.4 µM
same,TGI,[54],> 100 µM
same,TGI,[55],73.2 µM
same,TGI,[56],39.4 µM
same,TGI,[57],> 100 µM
CCOC(=O)C(CS)NC(=O)CCCCCCCC(=O)O (configuration not stated),TGI,[1],> 100 µM
same,TGI,[2],> 100 µM
same,TGI,[3],> 100 µM
same,TGI,[4],> 100 µM
same,TGI,[5],> 100 µM
same,TGI,[6],> 100 µM
same,TGI,[7],> 100 µM
same,TGI,[8],> 100 µM
same,TGI,[9],> 100 µM
same,TGI,[10],> 100 µM
same,TGI,[11],> 100 µM
same,TGI,[12],> 100 µM
same,TGI,[14],> 100 µM
same,TGI,[15],> 100 µM
same,TGI,[16],> 100 µM
same,TGI,[17],> 100 µM
same,TGI,[18],> 100 µM
same,TGI,[19],> 100 µM
same,TGI,[20],> 100 µM
same,TGI,[21],> 100 µM
same,TGI,[22],> 100 µM
same,TGI,[23],> 100 µM
same,TGI,[24],> 100 µM
same,TGI,[25],> 100 µM
same,TGI,[26],> 100 µM
same,TGI,[27],> 100 µM
same,TGI,[28],> 100 µM
same,TGI,[29],> 100 µM
same,TGI,[30],> 100 µM
same,TGI,[31],> 100 µM
same,TGI,[32],> 100 µM
same,TGI,[33],> 100 µM
same,TGI,[35],> 100 µM
same,TGI,[36],> 100 µM
same,TGI,[59],> 100 µM
same,TGI,[37],> 100 µM
same,TGI,[38],> 100 µM
same,TGI,[39],> 100 µM
same,TGI,[40],> 100 µM
same,TGI,[41],> 100 µM
same,TGI,[42],> 100 µM
same,TGI,[43],> 100 µM
same,TGI,[44],> 100 µM
same,TGI,[45],> 100 µM
same,TGI,[46],> 100 µM
same,TGI,[47],> 100 µM
same,TGI,[48],> 100 µM
same,TGI,[49],> 100 µM
same,TGI,[50],> 100 µM
same,TGI,[51],> 100 µM
same,TGI,[52],> 100 µM
same,TGI,[53],> 100 µM
same,TGI,[54],> 100 µM
same,TGI,[55],> 100 µM
same,TGI,[56],> 100 µM
same,TGI,[57],> 100 µM
